Source: patent EP1379634B1 (THE UNIVERSITY OF GEORGIA RESEARCH FOUNDATION, INC., priority 2001, dated 2002)
Residues, ends and D or L forms follow the SMILES beside them. *: point of attachment. AFC = O=c1cc(C(F)(F)F)c2ccc(N*)cc2o1; MeOSuc = COC(=O)CCC(=O)*; Cbz = O=C(OCc1ccccc1)*; Boc = CC(C)(C)OC(=O)*

What was measured:
[1] = system: BALB/c mice; assay: Observation of side effects in treated mice; format: in vivo; conditions: long-term studies
[2] = system: purified Taenia solium cysteine protease; assay: Substrate cleavage screen of AFC-linked peptides (Step II), purified protease; format: biochemical; conditions: 0.4 M Citrate, pH 4.9, 0.01 M cysteine, 18 h, 37 °C
Description: In this step, the most efficacious substrate for detection of the cysteine protease (high Kcat substrate) was determined in vitro along with those substrates which were not well cleaved (low kcat substrates). From this point forward, the following conditions refer to all assays: "assay buffer" refers to 0.4 M Citrate, pH 4.9 (the pH optima of the protease). Incubation time was 18 hours at 37°C. These conditions were determined by our preliminary data to be best for kinetic evaluation of the protease. […] The experiments were conducted in 6X50 […] Borosilicate mini-culture tubes (Fisher Scientific), and a fluorometer (Turner) was employed for detection of AFC cleavage.
Since the full 8,420 amino acid possibilities for cleavage were not available, representative substrates were employed. […] In order to choose this subset, representative amino acids (i.e., selected from the categories of acidic, basic, nonpolar, uncharged) were chosen so as to create as many categories of motifs as feasible for the P3-P1 positions with a set of 67 small peptides (see lists at Fig. 4a and Fig. 4b). The target cysteine protease from Taenia solium was isolated using the purification methods described previously in the patent WO 00/63350.
Approximately 1 ug (or a proteolytically detectable amount) of the purified target cysteine protease was incubated individually, with 1 ug of each of the available substrates in 500 uL of assay buffer. During this setup, the substrate was pre-incubated in the assay buffer for a short period of time (20 minutes) in order to reach an equilibrated status before the addition of the protease. Cleavage assessments were based upon the property of the protease to cleave synthetic peptide substrates linked at the C-terminus to 7-Amino-4-Trifluoromethyl Coumarin (AFC) as previously described. AFC linked tripeptides, dipeptides, and monopeptides, (with a variety of permutations at P3-P1) were available from Enzyme Systems Products (Livermore, CA), and were used as the source of the subset. Following incubation of enzyme preparations overnight (18 h, 37 °C) with peptide in assay buffer (Citrate, pH 4.9, supplemented with 0.01 M cysteine), free AFC concentrations were measured fluorometrically (excitation 405 nm, emission 505 nm). The proteolytic cleavage released the AFC group, which was measurable as a free molecule by a standard fluorometer and converted into molar quantities, based upon a previously established standard curve. The simplicity of AFC detection by the fluorometer was a key factor which expedited and simplified the procedures.
In the assay, 1 ug of the purified Taenia cysteine protease was added to a saturating amount of Z-Phe-Arg-AFC (4X10^-5 M) in assay buffer. The experiment was conducted in triplicate and repeated at least 5 times until we were certain that variability in AFC cleavage was not statistically significant.
Vmax for the cleavage of substrates by the purified target protease and Vmax for substrates cleaved by the crude mix protease were each calculated using conventional kinetic modeling calculations already described in the art.

[3] = system: purified Taenia solium cysteine protease; assay: Competitor assay of low Vmax substrates (vehicles) against high Vmax substrate cocktails (Step III), purified protease; format: biochemical; conditions: vehicle 8X10^-6 M; for inhibition with the final cocktail (7.4%): 7.4% cocktail (five high Vmax substrates, 1X10^-6 M each); for V Value: V = P * M, P inhibition with first (1.4%) cocktail, M with last (7.4%) cocktail, each cocktail substrate 1X10^-6 M; for inhibition with the 1.4% cocktail: 1.4% cocktail (Z-FR-AFC 1X10^-6 M)
Description: The top 1.4% of substrates (out of 67) in the full panel of substrates with the highest Vmax values were chosen to compose a "TOP 1.4% cocktail". (We employed "Vmax" here although Kcat could also be used). Due to the lower number of substrates, a percentage was not chosen for the "BOTTOM %" substrates. Alternately, all substrates which were not cleaved as determined by a value of 10 uM/hr or less, were chosen to be tested in this step for competitive ability. Hereinafter the term "vehicle" will represent low Vmax substrates that were capable of inhibiting cleavage of the percent cocktails. In this instance, we tested for "vehicles" which inhibited cleavage of the TOP 1.4% cocktail (they were delivered into the active site). Based upon our results from Step II, the top 1.4% cocktail was composed of Z-Phe-Arg-AFC, the highest cleaved substrate.
The experiment began with a competitor test between the noncleaved low Vmax substrates and the highest Vmax substrate, Z-Phe-Arg-AFC. Concentrations were varied between the low Vmax substrate and Z-Phe-Arg-AFC, as described above under "refinement of assay" until a relative inhibition profile was obtained.
The mixture was allowed to equilibrate for a period of 30 minutes. Finally, active purified enzyme was added to the tubes at a concentration that was always 50 times less than the concentration of the high and low Vmax substrates, respectively, in order to insure saturation conditions. This concentration varied from purification to purification and the amount added depended upon the yield and specific activity of the purified protease.
Positive controls were set up in a manner similar to that described for test controls, except that solvent was added in substitution for the low Vmax substrate (in a volume equal to the low Vmax volume addition). All of the substrates could be dissolved in dimethylsulfoxide (DMSO), and therefore, this was the solvent of choice. Negative controls were set up by adding the low Vmax and the high Vmax substrate in a tube without the protease. All potential non-proteolytic induced liberation of AFC was therefore controlled for in this tube (a feature which also monitored stability of the AFC substrates, since these substrates will freely liberate AFC when unstable). A tube set was established for this negative control.
All controls were set up in triplicate, and experiments were repeated a minimum of five times. The assays were incubated at 37°C, for 18 hours overnight.
Percent inhibition was calculated as: %Inhibition = ((AFC positive for "Y"−AFC negative for "Y")−(AFC test−AFC negative for "Y"))/(AFC positive for "Y"−AFC negative for "Y") × 100 [formula]
A 2.9% cocktail of the high Vmax substrates was made. This was composed of Z-FR-AFC and the second most cleaved substrate, Z-FAR-AFC. The vehicles promoted from the initial screenings above were again tested for competitive inhibition ability with the new cocktails. Their concentrations were set identically to those which were "fixed" in the previous protocols. In other words, 8X10^-6 M of the vehicle was added to the culture tube with 1X10^-6 M of Z-FR-AFC and 1X10^-6 M of Z-FAR-AFC. Active protease was added last at a concentration that was 50 times less than the concentration of the high Vmax substrate (to ensure saturating conditions).
In similar experimental fashion, a 4.4%, 5.9%, and 7.4% cocktail were tested with each of the promising vehicles. Each increase in the percentage represented an increase by an additional high Vmax substrate. Each of the individual components in the cocktail were added at 1X10^-6 M each, to 8X10^-6 M of the vehicle. The composition of the cocktails was as follows: 4.4% cocktail: Z-FR-AFC, Z-FAR-AFC, and Z-AAK-AFC (third highest cleaved substrate); 5.9% cocktail: Z-FR-AFC, Z-FAR-AFC, Z-AAK-AFC, and AP-AFC (fourth highest cleaved substrate); 7.4% cocktail: […], Z-FAR-AFC, Z-AAK-AFC, AP-AFC, and Z-VLR-AFC. […]

[4] = system: Taenia solium crude mix; assay: Competitor assay of vehicles against high Vmax substrate cocktails (Step III), crude mix; format: biochemical
Description: Step III for a crude mix proceeds as it would for a purified protease, except that Vm is used instead of kcat.
One of the most intriguing findings in this experiment was that a highly similar inhibition pattern for the competitor assay resulted when the crude mix was employed as the source of the target protease. Although there were some variations in the effects of inhibitor dilution, the most highly ranked vehicles remained inhibitory consistently in comparison to the profile with the target protease. The relative profile and composition of the top tier of vehicles was identical. Z-LLL-AFC, Z-LLY-AFC, Mu-LY-AFC, Boc-VPR-AFC, Z-SY-AFC, Z-RR-AFC, Z-FLF-AFC, and Z-LGR-AFC consistently emerged as the top eight vehicles (Fig. 5b), respectively, based upon their V values (Table 2). […] It was notable that the three vehicles had very similar V values. […] As was mentioned, this vehicle along with Z-LLL-AFC and Z-LLY-AFC, were consistently the most inhibitory vehicles. The V values of the most inhibitory vehicle series are shown below in Table 2. Again, a clear break between the first and second tier vehicles is discernible for the V value. Table 2. Vehicles and V value rankings.

Row | Molecule | cleavage of AFC substrate (Vmax) [2] | inhibition with the final cocktail (7.4%) [3] | Tier [4] | also measured
1 | CC(C)CC(NC(=O)OCc1ccccc1)C(=O)NC(C=CS(=O)(=O)c1ccccc1)Cc1ccccc1 (stereo not drawn) |  |  |  | side effects in treated mice [1]: goiter and neurological problems
2 | CC(C)[C@H](NC(=O)OC(C)(C)C)C(=O)N1CCC[C@H]1C(=O)N[C@@H](CCCNC(=N)N)C(=O)Nc1ccc2c(C(F)(F)F)cc(=O)oc2c1 [B-VPR-AFC, Boc-Val-Pro-Arg-AFC] (Boc-Val-Pro-Arg-{AFC}) | noncleavable | less than 20% | 2 (The second tier was composed of those vehicles that produced inhibition between 20-50% inhibition when in the presence of the 1.4% cocktail) | V Value ([3]; listed as B-VPR-AC): 0.120
3 | N[C@@H](CCC(=O)O)C(=O)N[C@@H](Cc1ccc(O)cc1)C(=O)Nc1ccc2c(C(F)(F)F)cc(=O)oc2c1 [EY-AFC] (H-Glu-Tyr-{AFC}) | not cleaved |  |  | 
4 | COC(=O)CCC(=O)N[C@@H](Cc1ccccc1)C(=O)N[C@@H](CC(C)C)C(=O)N[C@@H](Cc1ccccc1)C(=O)Nc1ccc2c(C(F)(F)F)cc(=O)oc2c1 [MeoSuc-FLF-AFC] (MeOSuc-Phe-Leu-Phe-{AFC}) | not cleaved |  |  | 
5 | CC(C)C[C@H](NC(=O)OCc1ccccc1)C(=O)N[C@@H](CCCNC(=N)N)C(=O)N[C@@H](CCCNC(=N)N)C(=O)Nc1ccc2c(C(F)(F)F)cc(=O)oc2c1 [Z-LRR-AFC] (Cbz-Leu-Arg-Arg-{AFC}) |  |  |  | inhibition with the 1.4% cocktail [3]: greater than 20%
6 | N=C(N)NCCC[C@H](NC(=O)OCc1ccccc1)C(=O)N[C@@H](CCCNC(=N)N)C(=O)Nc1ccc2c(C(F)(F)F)cc(=O)oc2c1 [Z-RR-AFC] (Cbz-Arg-Arg-{AFC}) |  | less than 20% | 2 (The second tier was composed of those vehicles that produced inhibition between 20-50% inhibition when in the presence of the 1.4% cocktail) | V Value [3]: 0.09
7 | O=C(N[C@@H](CO)C(=O)N[C@@H](Cc1ccc(O)cc1)C(=O)Nc1ccc2c(C(F)(F)F)cc(=O)oc2c1)OCc1ccccc1 [Z-SY-AFC] (Cbz-Ser-Tyr-{AFC}) |  | less than 20% | 2 (The second tier was composed of those vehicles that produced inhibition between 20-50% inhibition when in the presence of the 1.4% cocktail) | V Value [3]: 0.09; V Value ([4]; V = P * M): 0.09
8 | Cbz-Leu-Gly-Arg-{AFC} [Z-LGR-AFC] | noncleavable | less than 20% |  | inhibition with the 1.4% cocktail [3]: greater than 20%
